Blank lines part the entries; values can stand above or below the molecule they belong to.
Legend:
[1] = target: T1, BACE1 (Homo sapiens, UniProt P56817); test: In Vitro BACE Cell-based Assay (HEK cell assay): Aβ40 in conditioned medium of cells stably expressing Amyloid Precursor Protein, sandwich ELISA
Summary of the method: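 APP-expressing cells were cultured 24 h in DMEM/10% FBS, then treated 24 h with compounds in 10-point dose response (top 100 μM or 10 μM; 0.1% DMSO final). Secreted Aβ40 was quantified by sandwich ELISA (pAb40 capture, biotinylated 6E10 detection, Europium TRF); IC50 from percent inhibition versus concentration.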

[2] = target: T1, BACE1; test: In Vitro Enzymatic BACE FRET (Fluorescence Resonance Energy Transfer) Assay; format: biochemical
Summary of the method: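 Acetate buffer at pH 4.2 with 10% DMSO and 100 uM genapol hosts the enzymatic reaction, initiated by 50 nM FRET substrate and allowed to proceed one hour. Tris quench to neutral pH precedes the fluorescence measurement.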

[3] = HEK cell-based assay, Aβ40 in conditioned medium, IC50 class symbols, read-out: HEK cell assay
[4] = in vitro BACE FRET enzyme assay, IC50 class symbols, read-out: BACE1 FRET assay
[5] = Table IV, class symbols, read-out: HEK cell assay
[6] = Table IV, class symbols, read-out: BACE1 FRET assay
[7] = Table III, IC50's in uM ranges, read-out: HEK cell assay
[8] = Table III, IC50's in uM ranges, read-out: BACE1 FRET assay
[9] = Table 1, Aβ40, 24 h incubation, read-out: HEK cell assay
[10] = Table 1, read-out: BACE1 FRET assay

T1 sequence (P56817 46-501, species assumed): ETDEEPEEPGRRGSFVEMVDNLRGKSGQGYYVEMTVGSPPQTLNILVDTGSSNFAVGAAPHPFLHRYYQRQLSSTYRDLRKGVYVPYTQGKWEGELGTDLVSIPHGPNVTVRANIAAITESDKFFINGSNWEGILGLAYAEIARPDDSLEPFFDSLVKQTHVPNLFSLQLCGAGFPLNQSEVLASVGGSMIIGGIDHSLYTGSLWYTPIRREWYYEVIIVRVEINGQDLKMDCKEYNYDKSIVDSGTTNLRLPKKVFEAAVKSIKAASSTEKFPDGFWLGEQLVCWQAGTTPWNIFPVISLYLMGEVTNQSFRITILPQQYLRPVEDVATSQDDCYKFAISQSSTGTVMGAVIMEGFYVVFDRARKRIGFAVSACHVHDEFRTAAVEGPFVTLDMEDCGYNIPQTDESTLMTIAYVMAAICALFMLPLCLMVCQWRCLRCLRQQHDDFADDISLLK

SMILES: COCC(=O)Nc1ccc2c(c1)[C@@]1(COC(N)=N1)c1cc(C#CC(C)(C)C)ccc1O2 [compound 324]
IC50 [1, 3]: 0.1 to 1 µM | IC50 [2, 4]: < 0.1 µM

SMILES: NC1=N[C@@]2(CO1)c1cc(-c3ccccc3)ccc1Oc1ncc(N3CCOCC3)cc12 [compound 626]
IC50 [1, 5]: < 0.1 µM | IC50 [2, 6]: < 0.1 µM

SMILES: CC1(C)CC(=O)N(c2ccc3c(c2)[C@]2(COC(N)=N2)c2cc(-c4cccnc4)ccc2O3)C1 [compound 749]
IC50 ([1]; read-out: HEK cell assay): < 0.1 µM | IC50 ([2]; read-out: BACE1 FRET assay): < 0.1 µM

SMILES: COC(C)(C)C#Cc1cnc2c(c1)[C@]1(COC(N)=N1)c1cc(-c3cccnc3)ccc1O2 [compound 603]
IC50 [1, 5]: < 0.1 µM | IC50 [2, 6]: < 0.1 µM

SMILES: NC1=N[C@@]2(CO1)c1cc(-c3cccnc3)ccc1Oc1cnc(-c3cccnc3)cc12 [compound 184]
IC50 [1, 7]: < 0.1 µM | IC50 [2, 8]: < 0.1 µM

SMILES: NC1=N[C@]2(CO1)c1cc(-c3cncnc3)ccc1Oc1cccnc12 [compound 527]
IC50 ([1]; HEK cells, read-out: HEK cell assay): 0.1 to 1 µM | IC50 ([2]; read-out: BACE1 FRET assay): 0.1 to 1 µM

SMILES: NC1=N[C@]2(CO1)c1cc(CCC3(O)CCC3)ccc1Oc1ccc(-c3cncnc3)cc12 [compound 797]
IC50 [1, 5]: < 0.1 µM | IC50 [2, 6]: < 0.1 µM

SMILES: NC1=N[C@@]2(CO1)c1cc(-c3cccnc3F)ccc1Oc1ccc(C3=CCOCC3)nc12 [compound 400]
IC50 [1, 3]: < 0.1 µM | IC50 [2, 4]: < 0.1 µM

SMILES: NC1=N[C@@]2(CO1)c1cc(-c3cccnc3)ccc1Oc1c(F)cc(OCC3CCOCC3)cc12 [compound 418]
IC50 [1, 3]: < 0.1 µM | IC50 [2, 4]: < 0.1 µM

SMILES: CC1(C)CN(c2ccc3c(c2)[C@]2(COC(N)=N2)c2cc(-c4cncnc4)ccc2O3)C1 [compound 561]
IC50 [1, 5]: < 0.1 µM | IC50 [2, 6]: < 0.1 µM

SMILES: NC1=N[C@]2(CO1)c1cc(-c3ccc(OC(F)F)cc3)ccc1Oc1ccc(-c3cncnc3)cc12 [compound 773]
IC50 ([1]; read-out: HEK cell assay): 0.1 to 1 µM | IC50 ([2]; read-out: BACE1 FRET assay): < 0.1 µM

SMILES: COc1ccc(F)c(-c2ccc3c(c2)C2(COC(N)=N2)c2ccc(C)cc2O3)c1 (stereo not drawn) [Example 19, 2′-(2-fluoro-5-methoxyphenyl)-6′-methylspiro[1,3-oxazole-4,9′-xanthen]-2-amine]
IC50 [1, 9]: 0.1 to 1 µM | IC50 [2, 10]: 1 to 5 µM

SMILES: CC1(C)CN(c2cc3c(cn2)Oc2ccc(-c4cccnc4F)cc2[C@@]32COC(N)=N2)CCO1 [compound 489]
IC50 ([1]; HEK cell assay (uM), HEK cells): < 0.1 µM | IC50 ([2]; BACE1 FRET assay (uM)): < 0.1 µM

SMILES: NC1=N[C@@]2(CO1)c1cc(-c3cncnc3)ccc1Oc1ncc(C#CC3CC3)cc12 [compound 742]
IC50 ([1]; read-out: HEK cell assay): < 0.1 µM | IC50 ([2]; read-out: BACE1 FRET assay): < 0.1 µM

More lines, now with the values ahead:

IC50 [1, 9]: 1 to 5 µM | IC50 [2, 10]: 1 to 5 µM
SMILES: COc1ccc2c(c1)C1(COC(N)=N1)c1cc(-c3cccc(OC)c3F)ccc1O2 (stereo not drawn) [Example 17, 2′-(2-fluoro-3-methoxyphenyl)-7′-methoxyspiro[1,3-oxazole-4,9′-xanthen]-2-amine]

IC50 [1, 7]: 1 to 5 µM | IC50 [2, 8]: 0.1 to 1 µM
SMILES: C[C@H]1OC(N)=N[C@]12c1cc(OCC(C)(C)C)ccc1Oc1ccc(-c3cncnc3)cc12 [126c]

IC50 [1, 5]: 1 to 5 µM | IC50 [2, 6]: < 0.1 µM
SMILES: CC(C)(C)COc1ccc2c(c1)[C@]1(COC(N)=N1)c1cc(-c3ccc(C#N)nc3)ccc1O2 [compound 882]

IC50 ([1]; Table II, Aβ40, 24 h incubation, read-out: HEK cell assay): 1 to 5 µM | IC50 ([2]; Table II, read-out: BACE1 FRET assay): 0.1 to 1 µM
SMILES: Cn1cc(-c2ccc3c(c2)[C@@]2(COC(N)=N2)c2cc(OCC(C)(C)C)ccc2O3)cn1 [Example 82, (4S)-2′-(2,2-dimethylpropoxy)-7′-(1-methyl-1H-pyrazol-4-yl)spiro[1,3-oxazole-4,9′-xanthen]-2-amine]

IC50 ([1]; read-out: HEK cell assay): 0.1 to 1 µM | IC50 ([2]; read-out: BACE1 FRET assay): < 0.1 µM
SMILES: NC1=N[C@]2(CO1)c1cc(OC[C@@H](O)C(F)(F)F)ccc1Oc1ccc(-c3cccnc3)cc12 [compound 925]

IC50 ([1]; read-out: HEK cell assay): < 0.1 µM | IC50 ([2]; read-out: BACE1 FRET assay): < 0.1 µM
SMILES: Cc1nc(-c2ccc3c(c2)[C@]2(COC(N)=N2)c2cc(-c4cccnc4)ccc2O3)cs1 [compound 679]

IC50 ([1]; read-out: HEK cell assay): 0.1 to 1 µM | IC50 ([2]; read-out: BACE1 FRET assay): < 0.1 µM
SMILES: CC(C)(C)COc1ccc2c(c1C#N)[C@]1(COC(N)=N1)c1cc(-c3cccnc3)ccc1O2 [compound 943]

— patent US8426447B2, “Spiro-tricyclic ring compounds as beta-secretase modulators and methods of use” (Amgen Inc., priority 2008, dated 2013)
